Common to all, as to type: in vivo, rat
One assay concerns 8-OHdG. Put plainly: Jejunal 8-OHdG concentration in rats fed a low-zinc diet. To be noted: male Slc/SD rats, low-zinc diet 7 days, gavage on days 5 and 6 (0.5 mL/100 g B.W.), organs harvested 24 hours after day 6 dose; low-zinc diet group 9.31±0.29, standard diet group 6.82±0.56. As for the experimental part: (§1) Male Slc/SD rats (4 weeks old) were used as experimental animals. (Grouping and Diet)
(§2) The rats were divided into the following groups, and the diets were as follows.
(§3) Low-zinc diet group (n=6): Free intake of a low-zinc diet (The concentration of zinc in the low-zinc diet: 3.9 mg zinc/kg diet) Note that the zinc concentration of the low-zinc diet is assumed to be 2.5 mg zinc/kg diet to 10 mg zinc/kg diet.)
(§4) From the start date of the regular breeding, the standard diet was fed to the standard diet group, and the low-zinc diet was fed to four groups including the low-zinc diet group, the low-zinc diet+precipitation fraction group, the low-zinc diet+supernatant fraction group, and the low-zinc diet+synthetic DHMBA group. They were fed by free intake. On days 5 and 6, 0.5% methyl cellulose solution was given to the standard diet group and the low-zinc diet group by gavage administration. The Pacific oyster extraction supernatant fraction was given to the low-zinc diet+supernatant fraction group by gavage administration. The Pacific oyster extraction precipitation fraction was given to the low-zinc diet+precipitation fraction group by gavage administration. The synthetic DHMBA was given to the low-zinc diet+synthetic DHMBA group by gavage administration. […]
(§5) The jejunal SOD concentration, MDA concentration, 8-OHdG concentration, ZIP4 concentration, and serum zinc concentration were measured. […]

For a further assay, the system named is MDA. The experiment in a line: Jejunal MDA concentration in rats fed a low-zinc diet. The settings on record: male Slc/SD rats, gavage on days 5 and 6, result in words, low-zinc diet group 6.67±0.47, standard diet group 4.53±0.26 mg/g of jejunum. As for the experimental part: as §1, §2, §3, §4, §5
Another assay has as its system ZIP4. The experiment in a line: Jejunal ZIP4 concentration in rats fed a low-zinc diet. To be noted: male Slc/SD rats, low-zinc diet 7 days, gavage on days 5 and 6, organs harvested 24 hours after day 6 dose; low-zinc diet group 4.38±0.33, standard diet group 8.89±0.71. As for the experimental part: as §1, §2, §3, §4, §5
Assay [1] can be described thus: Serum zinc concentration in rats fed a low-zinc diet. The settings on record: male Slc/SD rats, gavage on days 5 and 6, result in words. On the procedure: as §1, §2, §3, §4, §5

Structures are written as SMILES.

For `COc1c(O)cc(CO)cc1O` [synthetic DHMBA, 3,5-dihydroxy-4-methoxybenzyl alcohol], the “jejunal 8-OHdG concentration” value with 8-OHdG is 7.81±0.49 ng/g of jejunum. The “jejunal MDA concentration compared with low-zinc diet group” value in the assay with MDA is reported as “decrease in MDA”. For the same compound, in the assay with ZIP4, the “jejunal ZIP4 concentration” value was found to be 6.44 ± 0.76 pg/mg. Moreover, the “serum zinc concentration compared with low-zinc diet group” value in assay [1] is given as “significantly higher”.
